Measurements published in US9540391B2, “Isomannide derivatives as inhibitors of soluble epoxide hydrolase” (SANOFI, priority 2013, dated 2017).
Counter-ions that a name gives are not always drawn.

Each compound was assayed against T1, recombinant sEH (Homo sapiens, UniProt P34913) (assay: biochemical screening assay for inhibition of soluble epoxide hydrolase (fluorometric, Phome substrate)).
T1 construct: made in house; host or cells: Sf9 insect cells
T1 sequence (P34913 1-555): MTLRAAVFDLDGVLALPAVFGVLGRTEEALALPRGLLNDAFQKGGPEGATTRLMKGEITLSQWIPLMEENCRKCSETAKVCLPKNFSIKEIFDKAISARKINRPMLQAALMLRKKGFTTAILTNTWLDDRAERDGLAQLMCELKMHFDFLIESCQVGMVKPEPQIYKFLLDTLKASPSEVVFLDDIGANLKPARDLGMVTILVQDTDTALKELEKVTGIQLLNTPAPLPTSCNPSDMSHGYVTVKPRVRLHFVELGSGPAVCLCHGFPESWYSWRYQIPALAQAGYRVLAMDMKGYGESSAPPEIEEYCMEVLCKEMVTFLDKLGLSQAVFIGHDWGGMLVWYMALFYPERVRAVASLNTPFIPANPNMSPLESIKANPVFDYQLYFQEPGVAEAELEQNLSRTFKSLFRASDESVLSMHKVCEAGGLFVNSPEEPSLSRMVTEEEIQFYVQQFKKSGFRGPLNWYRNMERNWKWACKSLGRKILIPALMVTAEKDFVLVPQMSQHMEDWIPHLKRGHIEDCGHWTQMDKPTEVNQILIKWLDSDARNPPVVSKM
Description: The ability of the compounds of the formula I to inhibit soluble epoxide hydrolase can be determined as follows:
Compounds were tested in a biochemical screening assay using recombinant sEH purified from Sf9 insect cells and an artificial substrate, (3-phenyl-oxiranyl)-acetic acid cyano-(6-methoxy-naphtalen-2-yl)-methyl ester, Phome. The biochemical assay was performed in analogy to a fluorometric method described in the literature (P. D. Jones et al., Anal. Biochem. 2005, 343, 66-75). The assay principle bases on the sEH-catalyzed hydrolysis of an artificial α-cyano-ester substrate. 0-deacetylation liberates a cyanohydrin intermediate that rapidly decomposes to the highly fluorescent 6-methoxy-2-naphtaldehyde. To discriminate sample autofluorescence, the assay was carried out as a kinetic measurement with two time points. The first measurement is performed immediately before addition of the substrate and the second measurement is done after completion of the assay. The assay format is either in 96- or in 384-well format. Details of the assay using a 96-well plate format are described below. 40 μL recombinant sEH enzyme and 5 μL test compound are pre-incubated for 15 minutes at 30° C. Following pre-incubation, the reaction is started by addition of 5 μL Phome. The assay mixture containing 2 nM final sEH concentration, test compound ranging in a concentration from 0.0001-10 μM and 5 μM Phome is incubated for 60 minutes at 30° C.
Fluorescence can be measured with any suitable detector for instance a TECAN Safire or Tecan Ultra at […]. % inhibition of recombinant sEH activity is used for calculation of corresponding IC50 values as illustrated and described in the examples.
The NCBI gene bank reference sequence with the accession number NM_001979 for EPHX2/sEH was applied for recombinant protein production:
The following commercially available materials have been used: • Incubation reagent: 25 mM Hepes (Sigma-Aldrich, Cat. No H-3375), 0.01% bovine albumin (Sigma-Aldrich Cat. No PA9205) • Substrate: 3-Phenyl-oxiranyl)-acetic acid cyano-(6-methoxy-naphtalen-2-yl)-methyl ester, Phome (Biozol Cat. No 10003134) • Microtiter plates: 96-well plates (Greiner Cat. No 655180; Costar Cat. No 3915)

Structure (SMILES)	IC50
O=C(NCCc1cccs1)N[C@H]1CO[C@@H]2[C@@H](CCc3ccccc3)CO[C@@H]21 [Example 370, 1-((3S,3aR,6S,6aR)-6-Phenethyl-hexahydro-furo[3,2-b]furan-3-yl)-3-(2-thiophen-2-yl-ethyl)-urea]	43 nM
Cc1cccc(NC(=O)NC2COC3C(C#N)COC23)c1 (stereo not shown) [Example 383]	694 nM
Cc1cccc(CNC(=O)NC2COC3C(CCc4ccccc4)COC23)c1 [Example 359, 1-(3-Methyl-benzyl)-3-[(3S,3aR,6R)-6-((S)-phenethyl)-hexahydro-furo[3,2-b]furan-3-yl]-urea]	111 nM
Cc1ncccc1O[C@H]1CO[C@H]2[C@@H]1OC[C@@H]2NC(=O)NCCOC(C)(C)C [Example 217, 1-(2-tert-Butoxy-ethyl)-3-[(3S,3aR,6S,6aS)-6-(2-methyl-pyridin-3-yloxy)-hexahydro-furo[3,2-b]furan-3-yl]-urea]	371 nM
Cc1ncccc1O[C@H]1CO[C@H]2[C@@H]1OC[C@@H]2NC(=O)NC(C)(C)c1ccc(F)cc1 [Example 204, 1-[1-(4-Fluoro-phenyl)-1-methyl-ethyl]-3-[(3S,3aR,6S,6aS)-6-(2-methyl-pyridin-3-yloxy)-hexahydro-furo[3,2-b]furan-3-yl]-urea]	734 nM
Cc1ncccc1O[C@H]1CO[C@H]2[C@@H]1OC[C@@H]2NC(=O)NC1CCCNC1 (stereo partly drawn) [Example 82, 1-[(3S,3aR,6S,6aS)-6-(2-methyl-pyridin-3-yloxy)-hexahydro-furo[3,2-b]furan-3-yl]-3-piperidin-3-yl-urea; hydrochloride]	2620 nM
O=C(NC1CCCCC1)N[C@H]1CO[C@H]2[C@@H]1OC[C@@H]2Sc1ncccn1 [Example 46, 1-Cyclohexyl-3-[(3S,3aR,6S,6aS)-6-(pyrimidin-2-ylsulfanyl)-hexahydro-furo[3,2-b]furan-3-yl]-urea]	50 nM
CC[C@@H](NC(=O)N[C@H]1CO[C@H]2[C@@H]1OC[C@@H]2Oc1ccc(F)cc1)c1ccccc1 [Example 154, 1-[(3S,3aR,6S,6aS)-6-(4-Fluoro-phenoxy)-hexahydro-furo[3,2-b]furan-3-yl]-3-((R)-1-phenyl-propyl)-urea]	51 nM
Cc1ncccc1O[C@H]1CO[C@H]2[C@@H]1OC[C@@H]2NC(=O)NCC1CCC(=O)N1 (stereo partly drawn) [Example 201, 1-[(3S,3aR,6S,6aS)-6-(2-Methyl-pyridin-3-yloxy)-hexahydro-furo[3,2-b]furan-3-yl]-3-(5-oxo-pyrrolidin-2-ylmethyl)-urea]	5790 nM
Cc1cc(C)cc(NC(=O)NC2COC3C(C#N)COC23)c1 (stereo not shown) [Example 381]	108 nM
Cc1csc(CNC(=O)N[C@H]2CO[C@H]3[C@@H]2OC[C@@H]3Oc2cccnc2C)n1 [Example 199, 1-[(3S,3aR,6S,6aS)-6-(2-Methyl-pyridin-3-yloxy)-hexahydro-furo[3,2-b]furan-3-yl]-3-(4-methyl-thiazol-2-ylmethyl)-urea]	2070 nM

Compounds with a lower IC50, results first:

IC50	Structure (SMILES)
5 nM	Cc1ncccc1OC1COC2C(NC(=O)NC3CC4CCC3(C)C4(C)C)COC12 [Example 173, 1-[(2R,3aS,5S,6S)-6-(2-Methyl-pyridin-3-yloxy)-hexahydro-furo[3,2-b]furan-3-yl]-3-((1R,2S,4R)-1,7,7-trimethyl-bicyclo[2.2.1]hept-2-yl)-urea]
38 nM	COc1cccc([C@@H](C)NC(=O)N[C@H]2CO[C@H]3[C@@H]2OC[C@@H]3Oc2ccc(F)cc2)c1 [Example 155, 1-[(3S,3aR,6S,6aS)-6-(4-Fluoro-phenoxy)-hexahydro-furo[3,2-b]furan-3-yl]-3-[(R)-1-(3-methoxy-phenyl)-ethyl]-urea]
5 nM	O=C(NC1CCCCC1)N[C@H]1CO[C@H]2[C@@H]1OC[C@@H]2Oc1ccccc1F [Example 95, 1-Cyclohexyl-3-[(3S,3aR,6S,6aS)-6-(2-fluoro-phenoxy)-hexahydro-furo[3,2-b]furan-3-yl]-urea]
3 nM	O=C(NC1CCCCC1)N[C@H]1CO[C@H]2[C@@H]1OC[C@@H]2Oc1cc(Cl)cc(Cl)c1 [Example 31, 1-Cyclohexyl-3-[(3S,3aR,6S,6aS)-6-(3,5-dichloro-phenoxy)-hexahydro-furo[3,2-b]furan-3-yl]-urea]
9 nM	Cc1cc(C)cc(NC(=O)NC2COC3C(CCc4ccsc4)COC23)c1 [Example 362, 1-(3,5-Dimethyl-phenyl)-3-[(3S,3aR,6R)-6-((S)-2-thiophen-3-yl-ethyl)-hexahydro-furo[3,2-b]furan-3-yl]-urea]
31 nM	Cc1ncccc1O[C@H]1CO[C@H]2[C@@H]1OC[C@@H]2NC(=O)N[C@@H]1C[C@H](C)CC[C@H]1C(C)C [Example 174, 1-((1R,2S,5R)-2-Isopropyl-5-methyl-cyclohexyl)-3-[(3S,3aR,6S,6aS)-6-(2-methyl-pyridin-3-yloxy)-hexa-hydro-furo[3,2-b]furan-3-yl]-urea]
10 nM	O=C(NC1CCCCC1)N[C@H]1CO[C@H]2[C@@H]1OC[C@@H]2Oc1cccc(CNC2CC2)c1 [Example 128, 1-Cyclohexyl-3-[(3S,3aR,6S,6aS)-6-(3-cyclopropylaminomethyl-phenoxy)-hexahydro-furo[3,2-b]furan-3-yl]-urea; trifluoroacetate]
5 nM	O=C(NC1CCCCC1)N[C@H]1CO[C@H]2[C@@H]1OC[C@@H]2S(=O)(=O)C1CCCCC1 [Example 74, 1-((3S,3aR,6S,6aS)-6-cyclohexanesulfonyl-hexahydro-furo[3,2-b]furan-3-yl)-3-cyclohexyl-urea]
1 nM	Cc1cncc(O[C@H]2CO[C@H]3[C@@H]2OC[C@@H]3NC(=O)NC2CCCCC2)c1 [Example 36, 1-Cyclohexyl-3-[(3S,3aR,6S,6aS)-6-(5-methyl-pyridin-3-yloxy)-hexa-hydro-furo[3,2-b]furan-3-yl]-urea]
16 nM	Cc1ncccc1O[C@H]1CO[C@H]2[C@@H]1OC[C@@H]2NC(=O)NC1CCCN(C(=O)OC(C)(C)C)C1 (stereo partly drawn) [Example 81, 3-{3-[(3S,3aR,6S,6aS)-6-(2-methyl-pyridin-3-yloxy)-hexahydro-furo[3,2-b]furan-3-yl]-ureido}-piperidine-1-carboxylic acid tert-butyl ester]
10 nM	Cc1ncccc1O[C@H]1CO[C@H]2[C@@H]1OC[C@@H]2NC(=O)NC1CCCN(C(=O)C(F)(F)F)C1 (stereo partly drawn) [Example 87, 1-[(3S,3aR,6S,6aS)-6-(2-Methyl-pyridin-3-yloxy)-hexahydro-furo[3,2-b]furan-3-yl]-3-[1-(2,2,2-trifluoro-acetyl)-piperidin-3-yl]-urea]
2 nM	O=C(NC1CCCCC1)N[C@H]1CO[C@H]2[C@@H]1OC[C@@H]2Oc1ccccc1Cl [Example 98, 1-[(3S,3aR,6S,6aS)-6-(2-Chloro-phenoxy)-hexahydro-furo[3,2-b]furan-3-yl]-3-cyclohexyl-urea]
7 nM	CC(C)(C)c1ccc(O[C@H]2CO[C@H]3[C@@H]2OC[C@@H]3NC(=O)NC2CCCCC2)cc1 [Example 103, 1-[(3S,3aR,6S,6aS)-6-(4-tert-Butyl-phenoxy)-hexahydro-furo[3,2-b]furan-3-yl]-3-cyclohexyl-urea]
2 nM	Cc1ccc(S[C@H]2CO[C@H]3[C@@H]2OC[C@@H]3NC(=O)NC2CCCCC2)nc1 [Example 59, 1-Cyclohexyl-3-[(3S,3aR,6S,6aS)-6-(5-methyl-pyridin-2-ylsulfanyl)-hexa-hydro-furo[3,2-b]furan-3-yl]-urea]
